Legend:
Test in all cases: Test A greenhouse herbicide screen
[1] = test system: Bush Bean; type: in vivo, bush beans; conditions: POST-EMERGENCE, 16 days
Description: (§1) Seeds of crabgrass (Digitaria spp.), barnyardgrass (Echinochloa crusgalli), wild oats (Avena fatua), cassia (Cassia tora), morningglory (Ipomoea sp.), cocklebur (Xanthium spp.), sorghum, corn, soybean, rice, wheat and nutsedge tubers (Cyperus rotundus) were planted in a growth medium and treated preemergence with the chemicals dissolved in a non-phytotoxic solvent solution of the compounds of Table A. At the same time, cotton having five leaves (including cotyledonary ones), bush beans with the third trifoliate leaf expanding, crabgrass and barnyardgrass with two leaves, wild oats with two leaves, cassia with three leaves (including cotyledonary ones), morningglory and cocklebur with four leaves (including the cotyldonary ones), sorghum and corn with four leaves, soybean with two cotyledonary leaves, rice with three leaves, wheat with one leaf, and nutsedge with three-five leaves were sprayed with a non-phytotoxic solvent solution of the compounds of Table A. Other containers of the above mentioned weeds and crops were treated pre- or post-emergence with the same non-phytotoxic solvent so as to provide a solvent control. A set of untreated control plants was also included for comparison. Pre- emergence and post-emergence treated plants and controls were maintained in a greenhouse for sixteen days, then all treated plants were compared with their respective controls and rated visually for response to treatment.

[2] = test system: Corn; type: in vivo; conditions: 16 days
Description: as §1

[3] = test system: Cotton; type: in vivo; conditions: POST-EMERGENCE, 16 days
Description: as §1

[4] = test system: Sorghum; type: in vivo; conditions: 16 days
Description: as §1

[5] = test system: Wild Oats; type: in vivo, Avena fatua; conditions: 16 days
Description: as §1

[6] = test system: Rice; type: in vivo; parameters: scale not given here; conditions: 16 days
Description: as §1

[7] = test system: Soybean; type: in vivo; parameters: scale not given here; conditions: 16 days
Description: as §1

[8] = test system: Wheat; type: in vivo; parameters: scale not given here; conditions: 16 days
Description: as §1

[9] = test system: Barnyardgrass; type: in vivo, Echinochloa crusgalli; conditions: 16 days
Description: as §1

[10] = test system: Crabgrass; type: in vivo, Digitaria spp.; parameters: scale not given here; conditions: 16 days
Description: as §1

[11] = test system: Morningglory; type: in vivo, Ipomoea sp.; conditions: 16 days
Description: as §1

[12] = test system: Cocklebur; type: in vivo, Xanthium spp.; conditions: 16 days
Description: as §1

[13] = test system: Cassia; type: in vivo, Cassia tora; parameters: scale not given here; conditions: 16 days
Description: as §1

[14] = test system: Nutsedge; type: in vivo, Cyperus rotundus; parameters: scale not given here; conditions: 16 days
Description: as §1

COc1nc(C)nc(NC(=O)NS(=O)(=O)c2cc(Cl)cc(Cl)c2OS(C)(=O)=O)n1 [Compound 43]
0: Bush Bean response rating ([1]; 2 kg/ha) | Corn response rating ([2]; POST-EMERGENCE, 2 kg/ha) | Corn response rating ([2]; POST-EMERGENCE, 6 kg/ha) | Corn response rating ([2]; PRE-EMERGENCE, 2 kg/ha) | Cotton response rating ([3]; 2 kg/ha) | Sorghum response rating ([4]; POST-EMERGENCE, 2 kg/ha) | Sorghum response rating ([4]; POST-EMERGENCE, 6 kg/ha) | Sorghum response rating ([4]; PRE-EMERGENCE, 2 kg/ha) | Wild Oats response rating ([5]; POST-EMERGENCE, 2 kg/ha) | Wild Oats response rating ([5]; POST-EMERGENCE, 6 kg/ha) | Wild Oats response rating ([5]; PRE-EMERGENCE, 2 kg/ha) | Rice response rating ([6]; POST-EMERGENCE, 2 kg/ha) | Rice response rating ([6]; POST-EMERGENCE, 6 kg/ha) | Rice response rating ([6]; PRE-EMERGENCE, 2 kg/ha) | Soybean response rating ([7]; POST-EMERGENCE, 2 kg/ha) | Soybean response rating ([7]; PRE-EMERGENCE, 2 kg/ha) | Soybean response rating ([7]; PRE-EMERGENCE, 6 kg/ha) | Wheat response rating ([8]; POST-EMERGENCE, 2 kg/ha) | Wheat response rating ([8]; POST-EMERGENCE, 6 kg/ha) | Wheat response rating ([8]; PRE-EMERGENCE, 2 kg/ha) | Wheat response rating ([8]; PRE-EMERGENCE, 6 kg/ha) | Barnyardgrass response rating ([9]; POST-EMERGENCE, 2 kg/ha) | Barnyardgrass response rating ([9]; PRE-EMERGENCE, 2 kg/ha) | Crabgrass response rating ([10]; POST-EMERGENCE, 2 kg/ha) | Crabgrass response rating ([10]; POST-EMERGENCE, 6 kg/ha) | Crabgrass response rating ([10]; PRE-EMERGENCE, 2 kg/ha) | Morningglory response rating ([11]; POST-EMERGENCE, 2 kg/ha) | Morningglory response rating ([11]; POST-EMERGENCE, 6 kg/ha) | Morningglory response rating ([11]; PRE-EMERGENCE, 2 kg/ha) | Cocklebur response rating ([12]; POST-EMERGENCE, 2 kg/ha) | Cocklebur response rating ([12]; POST-EMERGENCE, 6 kg/ha) | Cocklebur response rating ([12]; PRE-EMERGENCE, 2 kg/ha) | Cassia response rating ([13]; POST-EMERGENCE, 2 kg/ha) | Cassia response rating ([13]; PRE-EMERGENCE, 2 kg/ha) | Nutsedge response rating ([14]; POST-EMERGENCE, 2 kg/ha) | Nutsedge response rating ([14]; POST-EMERGENCE, 6 kg/ha) | Nutsedge response rating ([14]; PRE-EMERGENCE, 2 kg/ha) | Nutsedge response rating ([14]; PRE-EMERGENCE, 6 kg/ha)
3G: Cassia response rating ([13]; PRE-EMERGENCE, 6 kg/ha)
3C: Bush Bean response rating ([1]; 6 kg/ha) | Cotton response rating ([3]; 6 kg/ha) | Morningglory response rating ([11]; PRE-EMERGENCE, 6 kg/ha)
1C: Rice response rating ([6]; PRE-EMERGENCE, 6 kg/ha) | Soybean response rating ([7]; POST-EMERGENCE, 6 kg/ha) | Barnyardgrass response rating ([9]; POST-EMERGENCE, 6 kg/ha) | Cassia response rating ([13]; POST-EMERGENCE, 6 kg/ha)
2G: Crabgrass response rating ([10]; PRE-EMERGENCE, 6 kg/ha)

COc1nc(NC(=O)NS(=O)(=O)c2cc(Cl)cc(Cl)c2OS(C)(=O)=O)nc(OC)n1 [Compound 44]
1C: Rice response rating ([6]; PRE-EMERGENCE, 6 kg/ha)
3G: Soybean response rating ([7]; POST-EMERGENCE, 6 kg/ha)
5C: Barnyardgrass response rating ([9]; PRE-EMERGENCE, 6 kg/ha)
2C: Cotton response rating ([3]; 6 kg/ha) | Sorghum response rating ([4]; POST-EMERGENCE, 6 kg/ha) | Sorghum response rating ([4]; PRE-EMERGENCE, 6 kg/ha) | Morningglory response rating ([11]; PRE-EMERGENCE, 6 kg/ha)
5H: Cocklebur response rating ([12]; PRE-EMERGENCE, 6 kg/ha)
0: Bush Bean response rating ([1]; 2 kg/ha) | Bush Bean response rating ([1]; 6 kg/ha) | Corn response rating ([2]; POST-EMERGENCE, 2 kg/ha) | Corn response rating ([2]; POST-EMERGENCE, 6 kg/ha) | Corn response rating ([2]; PRE-EMERGENCE, 2 kg/ha) | Cotton response rating ([3]; 2 kg/ha) | Sorghum response rating ([4]; POST-EMERGENCE, 2 kg/ha) | Sorghum response rating ([4]; PRE-EMERGENCE, 2 kg/ha) | Wild Oats response rating ([5]; POST-EMERGENCE, 2 kg/ha) | Wild Oats response rating ([5]; POST-EMERGENCE, 6 kg/ha) | Wild Oats response rating ([5]; PRE-EMERGENCE, 2 kg/ha) | Wild Oats response rating ([5]; PRE-EMERGENCE, 6 kg/ha) | Rice response rating ([6]; POST-EMERGENCE, 2 kg/ha) | Rice response rating ([6]; POST-EMERGENCE, 6 kg/ha) | Rice response rating ([6]; PRE-EMERGENCE, 2 kg/ha) | Soybean response rating ([7]; POST-EMERGENCE, 2 kg/ha) | Soybean response rating ([7]; PRE-EMERGENCE, 2 kg/ha) | Soybean response rating ([7]; PRE-EMERGENCE, 6 kg/ha) | Wheat response rating ([8]; POST-EMERGENCE, 2 kg/ha) | Wheat response rating ([8]; POST-EMERGENCE, 6 kg/ha) | Wheat response rating ([8]; PRE-EMERGENCE, 2 kg/ha) | Wheat response rating ([8]; PRE-EMERGENCE, 6 kg/ha) | Barnyardgrass response rating ([9]; POST-EMERGENCE, 2 kg/ha) | Barnyardgrass response rating ([9]; POST-EMERGENCE, 6 kg/ha) | Barnyardgrass response rating ([9]; PRE-EMERGENCE, 2 kg/ha) | Crabgrass response rating ([10]; POST-EMERGENCE, 2 kg/ha) | Crabgrass response rating ([10]; POST-EMERGENCE, 6 kg/ha) | Crabgrass response rating ([10]; PRE-EMERGENCE, 2 kg/ha) | Crabgrass response rating ([10]; PRE-EMERGENCE, 6 kg/ha) | Morningglory response rating ([11]; POST-EMERGENCE, 2 kg/ha) | Morningglory response rating ([11]; PRE-EMERGENCE, 2 kg/ha) | Cocklebur response rating ([12]; POST-EMERGENCE, 2 kg/ha) | Cocklebur response rating ([12]; POST-EMERGENCE, 6 kg/ha) | Cocklebur response rating ([12]; PRE-EMERGENCE, 2 kg/ha) | Cassia response rating ([13]; POST-EMERGENCE, 2 kg/ha) | Cassia response rating ([13]; POST-EMERGENCE, 6 kg/ha) | Cassia response rating ([13]; PRE-EMERGENCE, 2 kg/ha) | Nutsedge response rating ([14]; POST-EMERGENCE, 2 kg/ha) | Nutsedge response rating ([14]; POST-EMERGENCE, 6 kg/ha) | Nutsedge response rating ([14]; PRE-EMERGENCE, 2 kg/ha) | Nutsedge response rating ([14]; PRE-EMERGENCE, 6 kg/ha)
5G: Cassia response rating ([13]; PRE-EMERGENCE, 6 kg/ha)

— patent EP0044212B1, “Herbicidal o-alkylsulfonyloxy- and o-alkylsulfonylamino-benzenesulfonamides” (E.I. DU PONT DE NEMOURS AND COMPANY, priority 1980, dated 1982)
